In PubChem BioAssay (NCI):
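48-hour exposure; five concentrations; linearly interpolated endpoints. GI50 is the concentration that inhibits growth by half. At the TGI there is no net growth.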

Legend:
Assay in all cases: DTP human tumour cell line panel, 48 h
[1] = test system: BT-549 breast
[2] = test system: CAKI-1 renal
[3] = test system: OVCAR-4 ovarian
[4] = test system: SR leukemia
[5] = test system: DU-145 prostate
[6] = test system: MCF7 breast
[7] = test system: NCI-H460 lung
[8] = test system: LOX IMVI melanoma
[9] = test system: CCRF-CEM leukemia
[10] = test system: SF-268 CNS
[11] = test system: UACC-62 melanoma
[12] = test system: SK-MEL-5 melanoma
[13] = test system: OVCAR-5 ovarian
[14] = test system: SK-MEL-28 melanoma
[15] = test system: A498 renal
[16] = test system: T-47D breast
[17] = test system: OVCAR-3 ovarian
[18] = test system: SK-MEL-2 melanoma
[19] = test system: NCI-H226 lung
[20] = test system: PC-3 prostate
[21] = test system: UO-31 renal
[22] = test system: HOP-62 NSCLC
[23] = test system: UACC-257 melanoma
[24] = test system: HT29 colon
[25] = test system: 786-0 renal
[26] = test system: RPMI-8226 leukemia
[27] = test system: IGROV1 ovarian
[28] = test system: SN12C renal
[29] = test system: TK-10 renal
[30] = test system: COLO 205 colon
[31] = test system: EKVX NSCLC
[32] = test system: SNB-19 CNS
[33] = test system: HCC-2998 colon
[34] = test system: ACHN renal
[35] = test system: NCI-H23 lung
[36] = test system: HCT-15 colon
[37] = test system: SK-OV-3 ovarian
[38] = test system: HOP-92 NSCLC
[39] = test system: KM12 colon
[40] = test system: HCT-116 colon
[41] = test system: SNB-75 CNS
[42] = test system: OVCAR-8 ovarian
[43] = test system: MDA-MB-231 breast
[44] = test system: MOLT-4 leukemia
[45] = test system: MALME-3M melanoma
[46] = test system: A549 NSCLC
[47] = test system: U251 CNS
[48] = test system: K-562 leukemia
[49] = test system: NCI-H522 lung
[50] = test system: SW-620 colon
[51] = test system: SF-295 CNS
[52] = test system: MDA-MB-468 breast

With `CC(=O)Nc1cccc(Nc2nccc(N[C@@H](C)c3ccccc3)n2)c1` the GI50 [1] was 442 nM, the TGI [1] was over 10000 nM and the GI50 [2] was 108 nM. For the same compound, the TGI [2] was over 10000 nM, the GI50 [3] was 1020 nM and the TGI [3] was over 10000 nM. For the same compound, the GI50 [4] was 45.3 nM, the TGI [4] was over 10000 nM and the GI50 [5] was 383 nM. It also gave a TGI [5] of over 10000 nM, a GI50 [6] of 171 nM and a TGI [6] of over 10000 nM. It also gave a GI50 [7] of 246 nM, a TGI [7] of over 10000 nM and a GI50 [8] of 390 nM. For the same compound, the TGI [8] was over 10000 nM, the GI50 [9] was 233 nM and the TGI [9] was over 10000 nM. It also gave a GI50 [10] of 990 nM, a TGI [10] of over 10000 nM and a GI50 [11] of 126 nM. It also gave a TGI [11] of over 10000 nM, a GI50 [12] of 125 nM and a TGI [12] of 481 nM. It also gave a GI50 [13] of 409 nM, a TGI [13] of over 10000 nM and a GI50 [14] of 703 nM. For the same compound, the TGI [14] was over 10000 nM, the TGI [15] was over 10000 nM and the GI50 [16] was 331 nM. For the same compound, the TGI [16] was over 10000 nM, the GI50 [17] was 118 nM and the TGI [17] was over 10000 nM. The GI50 [18] was 180 nM, the TGI [18] was over 10000 nM and the GI50 [19] was 1000 nM. For the same compound, the TGI [19] was over 10000 nM, the GI50 [20] was 319 nM and the TGI [20] was over 10000 nM. It also gave a GI50 [21] of 372 nM, a TGI [21] of over 10000 nM and a GI50 [22] of 345 nM. It also gave a TGI [22] of over 10000 nM, a GI50 [23] of 908 nM and a TGI [23] of over 10000 nM. It also gave a GI50 [24] of 194 nM, a TGI [24] of over 10000 nM and a GI50 [25] of 602 nM. The TGI [25] was over 10000 nM, the GI50 [26] was 293 nM and the TGI [26] was over 10000 nM. It also gave a GI50 [27] of 370 nM, a TGI [27] of over 10000 nM and a GI50 [28] of 559 nM. The TGI [28] was over 10000 nM, the GI50 [29] was 760 nM and the TGI [29] was over 10000 nM. For the same compound, the GI50 [30] was 262 nM, the TGI [30] was 1080 nM and the GI50 [31] was 363 nM. For the same compound, the TGI [31] was over 10000 nM, the GI50 [32] was 335 nM and the TGI [32] was over 10000 nM. It also gave a GI50 [33] of 423 nM, a TGI [33] of over 10000 nM and a GI50 [34] of 509 nM. It also gave a TGI [34] of over 10000 nM, a GI50 [35] of 239 nM and a TGI [35] of over 10000 nM. It also gave a GI50 [36] of 121 nM, a TGI [36] of over 10000 nM and a GI50 [37] of 675 nM. It also gave a TGI [37] of over 10000 nM, a GI50 [38] of 793 nM and a TGI [38] of over 10000 nM. It also gave a GI50 [39] of 104 nM, a TGI [39] of over 10000 nM and a GI50 [40] of 276 nM. For the same compound, the TGI [40] was over 10000 nM, the GI50 [41] was 119 nM and the TGI [41] was over 10000 nM. The GI50 [42] was 363 nM, the TGI [42] was over 10000 nM and the GI50 [43] was 416 nM. The TGI [43] was over 10000 nM, the GI50 [44] was 327 nM and the TGI [44] was over 10000 nM. For the same compound, the GI50 [45] was 102 nM, the TGI [45] was over 10000 nM and the GI50 [46] was 418 nM. The TGI [46] was over 10000 nM, the GI50 [47] was 289 nM and the TGI [47] was over 10000 nM. The GI50 [48] was 49.8 nM, the TGI [48] was over 10000 nM and the GI50 [49] was 129 nM. For the same compound, the TGI [49] was 1240 nM, the GI50 [50] was 194 nM and the TGI [50] was over 10000 nM. For the same compound, the GI50 [51] was 110 nM and the TGI [51] was 522 nM.

With `CCN1C(=O)c2ccc3c4c(ccc(c24)C1=O)C(=O)N(CCCNCc1ccccc1OC)C3=O` the GI50 [52] was 326 nM and the TGI [52] was 1300 nM.

With `Cc1cn(-c2cc(NC(=O)c3cccc(C#Cc4cccc5[nH]nc(N)c45)c3)cc(C(F)(F)F)c2)cn1` the GI50 [52] was 17100 nM and the TGI [52] was over 100000 nM.

In the case of `CCCOC(=O)N[C@H]1CCc2c(Cl)c(OC)c(OC)c(OC)c2-c2ccc(SC)c(=O)cc21`, the GI50 [52] is reported as under 10 nM and the TGI [52] is reported as 16300 nM.

`CCOc1cc(C(C)(C)C)ccc1C1=N[C@H](c2ccc(Cl)cc2)[C@H](c2ccc(Cl)cc2)N1C(=O)N1CCN(CC#Cc2cccc3c2CN([C@@H]2CCC(=O)NC2=O)C3=O)CC1` was tested, and the GI50 [52] was 32.1 nM and the TGI [52] was over 100000 nM.

For `CN(c1ccc(NC(=O)Nc2c(Cl)cccc2Cl)cc1)c1ccnc(Nc2cccc(CS(C)(=O)=O)c2)n1`, the GI50 [52] was 1110 nM and the TGI [52] was 6440 nM.

`CN(C)C/C=C/C(=O)Nc1ccc(C(=O)N[C@@]2(C)CCC[C@@H](Nc3ncc(Cl)c(-c4c[nH]c5ccccc45)n3)C2)nc1` was tested, and the GI50 [52] was 10.8 nM and the TGI [52] was 35.2 nM.
